Calls of active or inactive are those of the source. How the calls were made is not given here.

Serine/threonine-protein kinase mTOR (Homo sapiens), sequence (P42345 2015-2114): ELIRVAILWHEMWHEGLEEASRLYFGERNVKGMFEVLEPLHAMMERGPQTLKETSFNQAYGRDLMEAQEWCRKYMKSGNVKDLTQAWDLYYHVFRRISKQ

This experiment has as its target Serine/threonine-protein kinase mTOR (Homo sapiens) (UniProt P42345). Nature of the experiment: binders of mTOR FRB domain, biophysical, NMR (AID 1648). Conditions: NMR binding to FRB domain, chemical shift.
On to `COC(=O)c1ccccc1N(C)S(C)(=O)=O`, for which the Kd (usually the equilibrium constant for the complex coming apart) is > 4 mM (inactive). Under `CNC(=O)C(=O)NCc1ccc(C)cc1` stands > 4 mM (inactive).

As to `Oc1ccc(-c2n[nH]c(=S)n2Cc2ccco2)cc1`, the Kd was > 4 mM (inactive).

In the case of `Nc1ccc2[nH]ncc2c1`, the Kd is > 4 mM (inactive). Turning to `CC(=O)Nc1ccc(C(=O)NC2=NCCS2)cc1`, the Kd is > 4 mM (inactive). Take `Nc1nc2ncc(=O)[nH]c2c(=O)[nH]1`: the Kd is > 4 mM (inactive).

For `COc1ccccc1NC(=O)CCC(=O)O`, the Kd was > 4 mM (inactive). Take `O=C(CSc1ncnc2ccccc12)NCCCO`: the Kd was > 4 mM (inactive). Under `CC1(C)C(=O)[C@@H]2O[C@@H]2[C@@]2(C)C1C[C@@H](O)[C@]1(C)C2CC[C@@]2(C)[C@H](c3ccoc3)OC(=O)C3OC321` (some centres undefined) stands > 4 mM (inactive); under `COc1ccc(S(N)(=O)=O)cc1`, > 4 mM (inactive); under `Cn1nnc2cc(CN)ccc21`, > 4 mM (inactive). `CC1(C)Cc2c(c(-c3ccco3)[nH]c(=O)c2C#N)CO1`: the Kd is > 4 mM (inactive). As for `c1ccc(-n2cnnc2)nc1`, the Kd was > 4 mM (inactive). As for `CC(=O)Nc1nnc(-c2ccccn2)o1`, the Kd was > 4 mM (inactive).

For the origin of these results see PubChem BioAssay AID1648 (Sanford-Burnham Center for Chemical Genomics, 2009).
